Measured values published in patent publication US8735425B2, “Tetrahydroisoquinoline derivative” (Daiichi Sankyo Company, Limited, priority 2008, dated 2014).

Assays:
[1] = tested on: Male C57BL/6N mice; assay: Triglyceride absorption suppression after fat loading (in vivo DGAT1 inhibitory effect); settings: Mus musculus, po; dose of 10 mg/kg or lower, orally administered, mice fasted overnight, plasma triglyceride after fat loading; read-out: Triglyceride absorption suppressive activity
Experimental: The DGAT1 enzyme is important for the digestion and absorption of triglycerides, and the inhibition of DGAT1 in the small intestine suppresses the absorption of triglycerides. The in vivo activity of its DGAT1 inhibitory effect was evaluated with the suppressed absorption of triglycerides after fat loading as an index. Male C57BL/6N mice (7-12 weeks old, body weight: 17-25 g, Charles River Laboratories Japan Inc.) fasted overnight were assigned to Vehicle group 1, Vehicle group 2, and each test compound group, to which a vehicle (0.5% methylcellulose) or each test compound (1 to 10 mg/kg) suspended in vehicle was orally administered (5 mL/kg). After a given time, a lipoprotein lipase inhibitor (Pluronic-F127: Sigma-Aldrich Corp., 1 g/kg, 20% by weight dissolved in saline) was intraperitoneally administered (5 mL/kg) to each group. Immediately thereafter, distilled water for the Vehicle group 1 or a 20% fat-containing emulation (Intralipid 20%: TERUMO CORP., Japan) for the Vehicle group 2 and the compound groups were orally administered thereto (0.2 mL/mouse). After a given time of 1 to 4 hours after administration, blood was collected from the tail vein or the right ventricle, and plasma was immediately separated and collected. Then, the triglyceride concentration in plasma was measured using a commercially available kit (Triglyceride E-Test Wako: Wako Pure Chemical Industries, Ltd.). In this method, the administration of the lipoprotein lipase inhibitor suppresses the hydrolysis of triglycerides in the blood such that the triglycerides are accumulated in the blood. These triglycerides are derived from two origins: exogenous triglycerides absorbed in the gastrointestinal tract and endogenous triglycerides released from the liver. The triglyceride absorption suppressive activity of each test compound was calculated based on the equation shown below by removing the influence of the endogenous triglycerides. In this context, each test compound was separately confirmed to have no influence on the concentration of the endogenous triglycerides.
Triglyceride absorption suppressive activity (%)=100−[(Triglyceride concentration of each test compound group)−(Triglyceride concentration of Vehicle group 1)]/[(Triglyceride concentration of Vehicle group 2)−(Triglyceride concentration of Vehicle group 1)]×100

[2] = biological target: T1, DGAT1 enzyme (Homo sapiens, UniProt O75907); assay: DGAT1 inhibitory activity test; format: biochemical; settings: test compound concentration of 0.05 μg/ml; read-out: Inhibitory Rate
T1 construct: made in house
T1 sequence (O75907 1-488): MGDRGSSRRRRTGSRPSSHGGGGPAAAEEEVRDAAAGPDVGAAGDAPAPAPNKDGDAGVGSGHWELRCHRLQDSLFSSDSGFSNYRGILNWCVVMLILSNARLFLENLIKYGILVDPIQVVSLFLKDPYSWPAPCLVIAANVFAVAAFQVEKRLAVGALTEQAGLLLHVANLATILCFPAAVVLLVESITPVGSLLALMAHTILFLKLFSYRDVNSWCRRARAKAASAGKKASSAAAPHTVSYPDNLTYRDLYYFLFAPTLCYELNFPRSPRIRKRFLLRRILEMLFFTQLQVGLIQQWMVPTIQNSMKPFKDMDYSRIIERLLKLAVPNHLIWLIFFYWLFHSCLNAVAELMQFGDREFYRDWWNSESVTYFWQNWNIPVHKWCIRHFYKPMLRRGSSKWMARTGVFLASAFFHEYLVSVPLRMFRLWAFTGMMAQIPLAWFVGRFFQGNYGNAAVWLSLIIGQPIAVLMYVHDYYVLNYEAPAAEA
Experimental: DGAT1 enzyme was prepared and stored according to the method described in US2007/0249620.
(2) DGAT1 Inhibitory Activity Test
A reaction solution having the following composition was incubated at room temperature (23° C.) for 30 minutes: 175 mM Tris-HCl (pH 8.0), 8 mM MgCl2, 1 mg/ml BSA, 0.3 mM 1,2-dioleoyl-sn-glycerol (10-fold concentration of EtOH solution, 10% added), 10 μM [^14C]-oleoyl-CoA (approximately 50 mCi/mmol), 0.5% Triton X-100, the DGAT1 enzyme (10 μg) obtained in Test Example 1(1), and a test compound or vehicle (DMSO/MeOH, 7:3 solution, 5% added), […] in total. A reaction stop solution ([…] consisting of isopropanol/1-heptane/water (80:20:2, v/v/v) was added to the reaction solution and stirred. Subsequently, water (30 μl) and 1-heptane (100 μl) were added thereto and stirred. The 1-heptane layer (50 μl) was spotted onto a TLC plate and developed with a developing solvent consisting of 1-hexane/diethyl ether/acetic acid (85:15:1, v/v/v). The radioactivity of the triglyceride fraction was quantified using BAS2000 Bio Image Analyzer (FUJIFILM) and compared with the control. The inhibitory activity of the test compound was calculated according to the formula shown below. In this context, the radioactivity at no reaction (0 minute incubation) was used as background. Inhibitory Rate=100−[(Radioactivity of sample supplemented with test compound)−(Background)]/[(Radioactivity of control)−(Background)]×100

Row | inhibition at 0.05 µg/mL [2] [%] | Structure (SMILES) | inhibition in vivo at up to 10 mg/kg [1] [%]
1 | ≥ 50 | COc1ccc(F)cc1NC(=O)Nc1ccc2c(c1)CCN(C(=O)O[C@H]1CC[C@H](CC(=O)O)CC1)C2 [Example 22, trans-6-[3-(5-fluoro-2-methoxy-phenyl)-ureido]-3,4-dihydro-1H-isoquinoline-2-carboxylic acid 4-carboxymethyl-cyclohexyl ester] | ≥ 60
2 | ≥ 50 | COc1ccc(C)cc1NC(=O)Nc1ccc2c(c1)CCN(C(=O)O[C@H]1CC[C@H](CC(=O)O)CC1)C2 [Example 23, trans-6-[3-(2-methoxy-5-methyl-phenyl)-ureido]-3,4-dihydro-1H-isoquinoline-2-carboxylic acid 4-carboxymethyl-cyclohexyl ester] | ≥ 60
3 | ≥ 50 | COc1ncccc1NC(=O)Nc1ccc2c(c1)CCN(C(=O)O[C@H]1CC[C@H](CC(=O)O)CC1)C2 [Example 24, trans-6-[3-(2-methoxy-pyridin-3-yl)-ureido]-3,4-dihydro-1H-isoquinoline-2-carboxylic acid 4-carboxymethyl-cyclohexyl ester] | ≥ 60
4 | ≥ 50 | O=C(O)C[C@H]1CC[C@H](OC(=O)N2CCc3cc(Nc4nc5ccccc5o4)ccc3C2)CC1 [Example 25, trans-6-(benzoxazol-2-ylamino)-3,4-dihydro-1H-isoquinoline-2-carboxylic acid 4-carboxymethyl-cyclohexyl ester] | ≥ 60
5 | ≥ 50 | CCOc1ccccc1NC(=O)Nc1ccc2c(c1)CCN(C(=O)O[C@H]1CC[C@H](CC(=O)O)CC1)C2 [Example 26, trans-6-[3-(2-ethoxy-phenyl)-ureido]-3,4-dihydro-1H-isoquinoline-2-carboxylic acid 4-carboxymethyl-cyclohexyl ester] | ≥ 60
6 | ≥ 50 | CCOc1ccc(F)cc1NC(=O)Nc1ccc2c(c1)CCN(C(=O)O[C@H]1CC[C@H](CC(=O)O)CC1)C2 [Example 27, trans-6-[3-(2-ethoxy-5-fluoro-phenyl)-ureido]-3,4-dihydro-1H-isoquinoline-2-carboxylic acid 4-carboxymethyl-cyclohexyl ester] | ≥ 60
7 | ≥ 50 | CC(C)c1ccccc1NC(=O)Nc1ccc2c(c1)CCN(C(=O)O[C@H]1CC[C@H](CC(=O)O)CC1)C2 [Example 28, trans-6-[3-(2-isopropyl-phenyl)-ureido]-3,4-dihydro-1H-isoquinoline-2-carboxylic acid 4-carboxymethyl-cyclohexyl ester] | ≥ 60
8 | ≥ 50 | CC(C)c1cccc(NC(=O)Nc2ccc3c(c2)CCN(C(=O)O[C@H]2CC[C@H](CC(=O)O)CC2)C3)c1 [Example 29, trans-6-[3-(3-isopropyl-phenyl)-ureido]-3,4-dihydro-1H-isoquinoline-2-carboxylic acid 4-carboxymethyl-cyclohexyl ester] | ≥ 60
9 | ≥ 50 | CC(C)Oc1cccc(NC(=O)Nc2ccc3c(c2)CCN(C(=O)O[C@H]2CC[C@H](CC(=O)O)CC2)C3)c1 [Example 30, trans-6-[3-(3-isopropoxy-phenyl)-ureido]-3,4-dihydro-1H-isoquinoline-2-carboxylic acid 4-carboxymethyl-cyclohexyl ester] | ≥ 60
10 | ≥ 50 | O=C(O)C[C@H]1CC[C@H](OC(=O)N2CCc3cc(NC(=O)Nc4cc(F)c(F)cc4F)ccc3C2)CC1 [Example 31, trans-6-[3-(2,4,5-trifluoro-phenyl)-ureido]-3,4-dihydro-1H-isoquinoline-2-carboxylic acid 4-carboxymethyl-cyclohexyl ester] | ≥ 60
11 | ≥ 50 | O=C(O)C[C@H]1CC[C@H](OC(=O)N2CCc3cc(NC(=O)Nc4cc(F)c(F)c(F)c4)ccc3C2)CC1 [Example 32, trans-6-[3-(3,4,5-trifluoro-phenyl)-ureido]-3,4-dihydro-1H-isoquinoline-2-carboxylic acid 4-carboxymethyl-cyclohexyl ester] | ≥ 60
12 | ≥ 50 | O=C(Nc1ccc2c(c1)CCN(C(=O)O[C@H]1CC[C@H](Cc3noc(=O)[nH]3)CC1)C2)Nc1ccccc1F [Example 41, trans-6-[3-(2-fluoro-phenyl)-ureido]-3,4-dihydro-1H-isoquinoline-2-carboxylic acid 4-(5-oxo-4,5-dihydro-[1,2,4]oxadiazol-3-ylmethyl)-cyclohexyl ester] | ≥ 60
13 | ≥ 50 | O=C(Nc1ccc2c(c1)CCN(C(=O)O[C@H]1CC[C@H](Cc3cc(O)no3)CC1)C2)Nc1ccccc1F [Example 43, trans-6-[3-(2-fluoro-phenyl)-ureido]-3,4-dihydro-1H-isoquinoline-2-carboxylic acid 4-(3-hydroxy-isoxazol-5-ylmethyl)-cyclohexyl ester] | ≥ 60
14 | ≥ 50 | O=C(Nc1ccc2c(c1)CCN(C(=O)O[C@H]1CC[C@H](Cc3nn[nH]n3)CC1)C2)Nc1ccccc1F [Example 44, trans-6-[3-(2-fluoro-phenyl)-ureido]-3,4-dihydro-1H-isoquinoline-2-carboxylic acid 4-(2H-tetrazol-5-ylmethyl)-cyclohexyl ester] | ≥ 60
15 | ≥ 50 | O=C(Nc1ccc2c(c1)CCN(C(=O)O[C@H]1CC[C@H](CC(=O)OC[C@@H](O)CO)CC1)C2)Nc1ccccc1F [Example 45, trans-6-[3-(2-fluoro-phenyl)-ureido]-3,4-dihydro-1H-isoquinoline-2-carboxylic acid 4-((S)-2,3-dihydroxy-propoxycarbonylmethyl)-cyclohexyl ester] | ≥ 60
16 | ≥ 50 | O=C(O)C[C@H]1CC[C@H](OC(=O)N2CCc3cc(Nc4nc5ccc(Cl)cc5o4)ccc3C2)CC1 [Example 47, trans-6-(6-chloro-benzoxazol-2-ylamino)-3,4-dihydro-1H-isoquinoline-2-carboxylic acid 4-carboxymethyl-cyclohexyl ester] | ≥ 60
17 | ≥ 50 | CCOc1ccc(C)cc1NC(=O)Nc1ccc2c(c1)CCN(C(=O)O[C@H]1CC[C@H](CC(=O)O)CC1)C2 [Example 48, trans-6-[3-(2-ethoxy-5-methyl-phenyl)-ureido]-3,4-dihydro-1H-isoquinoline-2-carboxylic acid 4-carboxymethyl-cyclohexyl ester] | ≥ 60
18 | ≥ 50 | COc1cccc(NC(=O)Nc2ccc3c(c2)CCN(C(=O)O[C@H]2CC[C@H](CC(=O)O)CC2)C3)c1 [Example 49, trans-6-[3-(3-methoxy-phenyl)-ureido]-3,4-dihydro-1H-isoquinoline-2-carboxylic acid 4-carboxymethyl-cyclohexyl ester] | ≥ 60
